Patent US10202604B2, “Methods of using microRNA-141” (Stemirna Therapeutics Co., Ltd., priority 2016, dated 2019)

Tests used:
Du145 cells = experiment: Boyden chamber Matrigel invasion assay; format: cell-based, human; conditions: miR-141 oligos 30 nM, 48 h vs NC
Experimental: FIGS. 3A-3J show partial suppression of epithelial to mesenchymal transition by miR-141 and CD44 as a direct target of miR-141. FIGS. 3A-3B show qPCR analysis of epithelial to mesenchymal transition markers in bulk (FIG. 3A) or CD44^+ (FIG. 3B) Du145 cells transfected with the miR-141 oligos (30 nM; 48 h). Results were presented as the relative expression levels over the cells transfected with the NC oligos. […] GAPDH was used as control and the relative protein levels after normalizing to GAPDH and NC controls were indicated below each lane. […] Shown below is the actual sequence in the region with the mutated miR-141 binding sequence indicated in grey (below). […] Shown are representative images. […]
Du145 cells transfected with NC or miR-141 oligos at the two doses and time intervals indicated were used in Western blotting. Indicated below are relative expression levels (normalized to respective GAPDH and compared to NC) of each protein determined by densitometric scanning of the individual bands. […]
FIG. 6A: Putative binding site of miR-141 in EZH2 3′-UTR. […] Relative protein levels were measured by densitometry and normalized to GAPDH levels (indicated below). […]
For Boyden Chamber invasion assays, Biocoat Matrigel Invasion Chamber (BD, Franklin Lakes, N.J.) was employed following the manufacturer's instructions. […] Representative images were taken for each membrane and cells were counted. […]

[1] = tested on: epithelial to mesenchymal transition markers in Du145 cells; experiment: qPCR analysis of epithelial to mesenchymal transition markers; format: cell-based, human
Experimental: FIGS. 3A-3J show partial suppression of epithelial to mesenchymal transition by miR-141 and CD44 as a direct target of miR-141. FIGS. 3A-3B show qPCR analysis of epithelial to mesenchymal transition markers in bulk (FIG. 3A) or CD44^+ (FIG. 3B) Du145 cells transfected with the miR-141 oligos (30 nM; 48 h). Results were presented as the relative expression levels over the cells transfected with the NC oligos. […] GAPDH was used as control and the relative protein levels after normalizing to GAPDH and NC controls were indicated below each lane. […] Shown below is the actual sequence in the region with the mutated miR-141 binding sequence indicated in grey (below). […] Shown are representative images. […] Du145 cells were co-transfected with NC or miR-141 oligos (30 nM) together with pBabe empty vector or pBabe-CD44 vector. After 48 h, cells were harvested for invasion assays. Bars, mean±SD. *, P<0.05; **, P<0.01.
Total RNA was extracted using microRNA isolation kit (Life Technologies) according to the manufacturer's instructions. microRNA qPCRs were performed using TaqMan microRNA assays (Life Technologies). qPCR data for microRNAs were normalized to RNU48 whereas qPCR data for mRNAs were normalized to GAPDH.

miR-141: miR-141 mirVana mimics (Life Technologies); microRNA-141 oligonucleotide may have SEQ ID NO: 1; in some experiments over-expressed by lentiviral vectors (UAACACUGUCUGGUAAAGAUGG; listed as RNA, further chemistry not given here) [miR-141 mirVana mimics (Life Technologies); in some experiments over-expressed by lentiviral vectors]
Du145 cell invasion (Du145 cells): inhibited | E-cadherin (CDH1) mRNA ([1]; CD44+ Du145 cells, 30 nM, 48 h): significant increase | mRNA levels of mesenchymal markers including VIM and ZEB1 ([1]; CD44+ Du145 cells, 30 nM, 48 h): generally reduced | mRNA levels of most other EMT markers including FN, ZEB2, SNAI1, SNAI2, and TWIST ([1]; bulk Du145 cells): did not reduce | E-cadherin mRNA ([1]; bulk Du145 cells, 30 nM, 48 h): increased | VIM and ZEB1 mRNA ([1]; bulk Du145 cells, 30 nM, 48 h): decreased
